Laboratory results as given in ChEMBL document CHEMBL4364264, “Tetrazole hybrids with potential anticancer activity” (Eur J Med Chem, 2019).
Converted amounts (≈) assume the structure as drawn.

What was measured:
[1] = system: PC-3; assay: Cytotoxicity against human PC3 cells; assay type: functional, cell-based
[2] = system: HCT-116; assay: Cytotoxicity against human HCT116 cells; assay type: functional, cell-based
[3] = system: PC-3; assay: cells; settings: Homo sapiens, PC-3, 48 h
[4] = system: HT-29; assay: cells; settings: Homo sapiens, HT-29, 48 h
Description: Antiproliferative activity against human HT-29 cells after 48 hrs by MTT assay

[5] = system: MDA-MB-231; assay: Cytotoxicity against human MDA-MB-231 cells; assay type: functional
[6] = system: SiHa; assay: Cytotoxicity against human SiHa cells; assay type: functional
[7] = system: PANC-1; assay: Cytotoxicity against human PANC1 cells; assay type: functional
[8] = system: SK-BR-3; assay: Cytotoxicity against human SKBR3 cells; assay type: functional, cell-based
[9] = system: MCF7; assay: Cytotoxicity against human MCF7 cells; assay type: functional, cell-based
[10] = system: Caco-2; assay: Cytotoxicity against human Caco2 cells; assay type: functional, cell-based
[11] = system: HeLa; assay: Cytotoxicity against human HeLa cells; assay type: functional, cell-based
[12] = system: HepG2; assay: Growth inhibition of human HepG2 cells; assay type: functional
[13] = system: HeLa; assay: Growth inhibition of human HeLa cells; assay type: functional
[14] = system: MCF7; assay: Growth inhibition of human MCF7 cells; assay type: functional
[15] = system: DU-145; assay: Growth inhibition of human DU145 cells by microtiter plate assay; assay type: functional
[16] = system: MCF7; assay: Growth inhibition of human MCF7 cells by microtiter plate assay; assay type: functional
[17] = system: MDA-MB-231; assay: Growth inhibition of human MDA-MB-231 cells by microtiter plate assay; assay type: functional
[18] = system: HepG2; assay: Cytotoxicity against human HepG2 cells after 96 hrs by MTT assay; assay type: functional, cell-based; settings: HepG2, 96 h
[19] = system: HepG2; assay: Cytotoxicity against human HepG2 cells
[20] = system: HCT-116; assay: Cytotoxicity against human HCT116 cells after 96 hrs by MTT assay; assay type: functional, cell-based; settings: HCT-116, 96 h

SMILES: COc1cc(/C=C/C(=O)c2ccc(C)cc2)ccc1Oc1nnnn1-c1ccccc1
- IC50 [1]: 2.5 to 7 mg/L (≈ 6.06 to 17 µM)
- IC50 [2]: 2.5 to 7 mg/L (≈ 6.06 to 17 µM)

SMILES: COc1ccc(-c2nn(-c3ccccc3)cc2-c2nnn(CC(=O)O)n2)cc1
- IC50 [3]: 7.23 to 48.3 µM
- IC50 [4]: 7.23 to 48.3 µM

SMILES: O=C(O)c1cn(C2CC2)c2cc(N3CCN(C(=O)CCSc4nnnn4-c4ccc(Br)cc4)CC3)c(F)cc2c1=O
- GI50 [5]: 0.066 to 1.3 µM
- GI50 [6]: 0.066 to 1.3 µM
- GI50 [7]: 0.066 to 1.3 µM

SMILES: NC1=C(c2nnn[nH]2)C(c2ccccc2Cl)c2c(ccc3ccccc23)O1 (centres undefined)
- IC50 [8]: 15 to 87 µM
- IC50 [9]: 15 to 87 µM
- IC50 [10]: 15 to 87 µM
- IC50 [11]: 15 to 87 µM

SMILES: CN(C)C(=O)NC(c1ccccc1)n1cnnn1 (centres undefined)
- GI50 [12]: 8.2 to 41 µM
- GI50 [13]: 8.2 to 41 µM
- GI50 [14]: 8.2 to 41 µM

SMILES: CCn1cc(C(=O)O)c(=O)c2cnc(N3CCN(C(=O)CCSc4nnnn4-c4ccc(C(F)(F)F)cc4)CC3)nc21
- GI50 [5]: 0.066 to 1.3 µM
- GI50 [6]: 0.066 to 1.3 µM
- GI50 [7]: 0.066 to 1.3 µM

SMILES: CCc1cc2c(cc1O)CC[C@@H]1[C@@H]2CC[C@]2(C)[C@@H](Cc3nnn(C)n3)CC[C@@H]12
- GI50 [15]: 0.8 to 47 µM
- GI50 [16]: 0.8 to 47 µM
- GI50 [17]: 0.8 to 47 µM

SMILES: COc1cc(/C=C/C(=O)c2ccc(Cl)cc2)ccc1Oc1nnnn1-c1ccccc1
- IC50 [1]: 2.5 to 7 mg/L (≈ 5.78 to 16.2 µM)
- IC50 [2]: 2.5 to 7 mg/L (≈ 5.78 to 16.2 µM)

SMILES: COc1cc(/C=C/C(=O)c2ccc(F)cc2)ccc1Oc1nnnn1-c1ccccc1
- IC50 [1]: 2.5 to 7 mg/L (≈ 6 to 16.8 µM)
- IC50 [2]: 2.5 to 7 mg/L (≈ 6 to 16.8 µM)

SMILES: NC1=C(c2nnn[nH]2)C(c2ccccc2F)c2c(ccc3ccccc23)O1 (centres undefined)
- IC50 [8]: 15 to 87 µM
- IC50 [9]: 15 to 87 µM
- IC50 [10]: 15 to 87 µM
- IC50 [11]: 15 to 87 µM

SMILES: CCc1cc2c(cc1OS(N)(=O)=O)CC[C@@H]1[C@@H]2CC[C@]2(C)[C@@H](Cc3nnn(C)n3)CC[C@@H]12
- GI50 [15]: 0.8 to 47 µM
- GI50 [16]: 0.8 to 47 µM
- GI50 [17]: 0.8 to 47 µM

SMILES: NC(=S)NNC(c1ccc(O)cc1)n1cnnn1 (centres undefined)
- GI50 [12]: 5.2 to 29.8 µM
- GI50 [13]: 5.2 to 29.8 µM
- GI50 [14]: 5.2 to 29.8 µM

SMILES: CCc1ccc(C2C(c3nnn[nH]3)=C(N)Oc3ccc4ccccc4c32)cc1 (centres undefined)
- IC50 [8]: 15 to 87 µM
- IC50 [9]: 15 to 87 µM
- IC50 [10]: 15 to 87 µM
- IC50 [11]: 15 to 87 µM

SMILES: O=C(O)Cn1nnc(-c2cn(-c3ccccc3)nc2-c2ccccc2Cl)n1
- IC50 [3]: 6.43 to 18.2 µM
- IC50 [4]: 6.43 to 18.2 µM

SMILES: CCc1cc2c(cc1OS(N)(=O)=O)CC[C@@H]1[C@@H]2CC[C@]2(C)[C@@H](Cc3nnnn3C)CC[C@@H]12
- GI50 [15]: 0.34 to 0.55 µM
- GI50 [16]: 0.34 to 0.55 µM
- GI50 [17]: 0.34 to 0.55 µM

SMILES: COc1ccc(OC)c(C2C(c3nnn[nH]3)=C(N)Oc3ccc4ccccc4c32)c1 (centres undefined)
- IC50 [8]: 15 to 87 µM
- IC50 [9]: 15 to 87 µM
- IC50 [10]: 15 to 87 µM
- IC50 [11]: 15 to 87 µM

SMILES: CN(C)C(=O)NC(c1ccc(O)cc1)n1cnnn1 (centres undefined)
- GI50 [12]: 8.2 to 41 µM
- GI50 [13]: 8.2 to 41 µM
- GI50 [14]: 8.2 to 41 µM

SMILES: NC1=C(c2nnn[nH]2)C(c2ccc(Br)cc2)c2c(ccc3ccccc23)O1 (centres undefined)
- IC50 [8]: 15 to 87 µM
- IC50 [9]: 15 to 87 µM
- IC50 [10]: 15 to 87 µM
- IC50 [11]: 15 to 87 µM

SMILES: COc1ccc(C(=O)/C=C/c2ccc(Oc3nnnn3-c3ccccc3)cc2)cc1OC
- IC50 [1]: 3 mg/L (≈ 7 µM)
- IC50 [2]: 3.7 mg/L (≈ 8.64 µM)

SMILES: COc1ccc(C(=O)/C=C/c2ccc(Oc3nnnn3-c3ccccc3)c(OC)c2)cc1OC
- IC50 [1]: 2.2 mg/L (≈ 4.8 µM)
- IC50 [2]: 1.6 mg/L (≈ 3.49 µM)

SMILES: O=C(O)Cn1nnc(-c2cn(-c3ccccc3)nc2-c2ccc(Cl)cc2)n1
- IC50 [3]: 9.83 µM
- IC50 [4]: 6.43 µM

SMILES: NC1=C(c2nnn[nH]2)C(c2ccc(Cl)cc2)c2c(ccc3ccccc23)O1 (centres undefined)
- IC50 [8]: 15 to 87 µM
- IC50 [9]: 15 to 87 µM
- IC50 [10]: 15 to 87 µM
- IC50 [11]: 15 to 87 µM

SMILES: CCc1cc2c(cc1O)CC[C@@H]1[C@@H]2CC[C@]2(C)[C@@H](Cc3nnn[nH]3)CC[C@@H]12
- GI50 [15]: 0.34 to 100 µM
- GI50 [16]: 0.34 to 100 µM
- GI50 [17]: 0.34 to 100 µM

SMILES: CCc1cc2c(cc1OS(N)(=O)=O)CC[C@@H]1[C@@H]2CC[C@]2(C)[C@@H](Cc3nnn[nH]3)CC[C@@H]12
- GI50 [15]: 0.34 to 100 µM
- GI50 [16]: 0.34 to 100 µM
- GI50 [17]: 0.34 to 100 µM

SMILES: COc1cccc2c1C(=O)c1c(O)c3c(c(O)c1C2=O)C[C@@](O)(C(=O)CO)C[C@@H]3O[C@H]1C[C@H](N)[C@H](O)[C@H](C)O1 [DOXORUBICIN]
- IC50 [3]: 3.86 µM
- IC50 [4]: 2.24 µM
- IC50 [18]: 2.85 µM
- IC50 [19]: 4 mg/L (≈ 7.36 µM)
- IC50 [20]: 2.6 µM

SMILES: O=c1[nH]cc(F)c(=O)[nH]1 [FLUOROURACIL]
- IC50 [8]: 10 to 17 µM
- IC50 [1]: 21.4 mg/L (≈ 165 µM)
- IC50 [9]: 9.74 to 21.4 mg/L
- IC50 [10]: 10 to 17 µM
- IC50 [11]: 10 to 17 µM
- IC50 [2]: 17.3 mg/L (≈ 133 µM)

SMILES: CC/C(=C(\c1ccccc1)c1ccc(OCCN(C)C)cc1)c1ccccc1 [TAMOXIFEN]
- GI50 [5]: 0.24 µM
- GI50 [6]: 0.12 µM
- GI50 [7]: 0.15 µM
